The source of these data is paper PMC2947157, “Development of a FLIPR Assay for the Simultaneous Identification of MrgD Agonists and Antagonists from a Single Screen” (Journal of Biomedicine and Biotechnology, 2010).

By IC50 is commonly meant the concentration that inhibits the measured activity by half. As usually defined, the EC50 is the midpoint of the concentration-response curve.

“And” between values parts separate entries of the source, which are not always exact repeats. Identical values can stand only once. Counter-ions that a name gives are not always drawn. Like-named read-outs stand apart in the source and are kept apart here. Some results are limits rather than exact numbers.

Assay [1] addresses T1, MrgD (Homo sapiens, UniProt Q8TDS7).
T1 construct: expressed in transfected cells
In words: FLIPR antagonist dose-response assay against beta-alanine. Particulars: beta-alanine 10 μM, ~30 min preincubation. Format: cell-based. The procedure: (§1) CHO-DUKX-A2 cells stably expressing human or rat MrgD were plated in 384-well tissue-culture-treated polystyrene black clear flat-bottom assay plates (BD Biosciences, San Jose, CA). Thirty μL of 8 × 10^5 cells/mL (24,000 cells/well) were plated and maintained for ~24 hrs at 37°C in a humidified atmosphere containing 5% CO2. After removal of the growth medium, cells were incubated with 30 μL of Ca3 dye (Molecular Devices Corporation, Sunnyvale, CA) containing 2.5 mM freshly prepared probenecid made according to the manufacturer's protocol. Agonists were prepared in 1x Hanks balanced salt solution (HBSS) buffer with 20 mM HEPES buffer. Changes in intracellular Ca^2+ were monitored using the Fluorometric Imaging Plate Reader (FLIPR; Molecular Devices, Sunnyvale, CA). For the double addition protocols, compounds were added by the FLIPR, and readings were taken for 3 min, followed by the addition of the agonist. The change in intracellular calcium [Ca^2+] was monitored as an increase in relative fluorescence units (RFUS), and the difference between maximum and minimum RFU was used to calculate dose-response curves. Data analysis was performed using PRISM 4.0 (GraphPAD Software Inc.). For the LOPAC screen, cells were plated in 96-well tissue-culture-treated polystyrene black clear flat-bottom assay plates (BD Biosciences, San Jose, CA). One hundred μL of cells (40,000 cells/well) were plated and maintained under the same conditions as above. For the assay, growth medium was replaced with 90 μL of Ca3 dye containing 2.5 mM freshly prepared probenecid. The FLIPR added 10 μL of beta-alanine at 100 μM final concentration. For antagonist dose-response assays, the cells were incubated with the compounds for ~30 minutes after which beta-alanine at a final concentration of 10 μM was added by the FLIPR.
Target sequence in this assay (Q8TDS7 whole entry, species assumed): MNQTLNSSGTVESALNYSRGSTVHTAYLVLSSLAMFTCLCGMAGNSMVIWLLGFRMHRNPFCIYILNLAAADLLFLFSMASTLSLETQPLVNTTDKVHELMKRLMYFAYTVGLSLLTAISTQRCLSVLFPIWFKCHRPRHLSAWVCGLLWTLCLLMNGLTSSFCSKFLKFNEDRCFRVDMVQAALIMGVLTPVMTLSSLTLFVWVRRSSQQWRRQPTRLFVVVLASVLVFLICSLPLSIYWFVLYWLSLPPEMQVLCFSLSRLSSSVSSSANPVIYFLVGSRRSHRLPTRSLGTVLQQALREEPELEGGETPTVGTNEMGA

Assay [2] concerns the target T1, MrgD. The experiment in a line: Dual-addition FLIPR LOPAC library screen (test compound, then beta-alanine). Conditions: dual-addition format; for Calcium mobilization following addition of beta-alanine (addition 2) in LOPAC screen: beta-alanine 100 μM, Figure 4(b). Format: cell-based. The procedure:
as §1
We developed an assay that could allow both agonists and antagonists to be distinguished in a single screen. Employing such an assay format should enable the identification of tool compounds that may help in elucidating the role of MrgD in pain. The diagram in Figure 3 describes the dual-addition assay format where addition of the test compound (addition 1) is followed by the addition of beta-alanine (addition 2). A FLIPR response immediately upon the addition of a test compound would indicate its activity as an agonist. On the other hand, if the compound behaves as an antagonist, not only will there be a lack of response to this test compound, it will also attenuate the effects of the subsequent addition of beta-alanine. In the event of no receptor engagement by the test compound, a normal agonist response will be observed to beta-alanine. We validated this assay format, which was robust and consistent with a Z′ factor greater than 0.7.
Figure 3 Assay format for the identification of an agonist and antagonist from a single screen. Test compound is added first followed by a second addition of beta-alanine. An agonist will induce a FLIPR response immediately upon the addition of a test compound. An antagonist will cause a pharmacological blockade of the MrgD receptor resulting in attenuation or complete lack of response to beta-alanine. In the event of no receptor engagement, a normal agonist response will be observed from beta-alanine addition.
Figure 4 Representative FLIPR traces obtained from LOPAC screen. Compounds from the LOPAC library were applied followed by the addition of beta-alanine. […]
Target sequence in this assay (Q8TDS7 whole entry, species assumed): as above

Assay [3] concerns the target T1, MrgD. In words: Calcium mobilization FLIPR assay, agonist dose-response, CHO-DUKX cells expressing human MrgD. Format: cell-based. Particulars: for FLIPR response in human MrgD expressing cells: result in words. How it is done:
(§2) A Kozak sequence and HA epitope tag were incorporated in the forward primer. […] A Kozak sequence and c-Myc epitope tag were incorporated in the forward primer. The resulting PCR products were cloned into the Xba I and EcoR I sites of pHTOP vector, a proprietary derivative of the pED expression vector [12]. For transfection, CHO-DUKX-A2 cells (DHFR(−) CHO cell line stably expressing the tetracycline transactivator) were grown in M alpha media containing 1% MEM nonessential amino acids solution (NEAA), 10% fetal bovine serum (FBS), and 500 ug/mL G418. MrgDpHTOP was transfected using Lipofectamine Plus reagents as per the manufacturer's recommendations. Antibiotic selection was performed using Dulbecco's modified Eagle medium supplemented with 10% FBS, 100 units/mL penicillin, 100 μg/mL streptomycin, 1% NEAA, and 20 nM methotrexate (Calbiochem, San Diego, CA). Cell lines were maintained at 37°C in a humidified atmosphere containing 5% CO2. Surviving colonies were expanded further and used for functional analysis. Clones of human MrgD expressing cell lines were evaluated initially for MrgD transcript level by Taqman analysis and normalized against the house-keeping gene GAPDH (Glyceraldehyde-3-phosphate dehydrogenase).
as §1
On the technique in general: Calcium flux is commonly read through the fluorescence of an indicator in the cells.
Target sequence in this assay (Q8TDS7 whole entry): as the sequence (Q8TDS7 whole entry, species assumed) above

In assay [4] the target is T2, rat MrgD (Rattus norvegicus, UniProt Q7TN41).
T2 construct: expressed in transfected cells
T2 sequence (Q7TN41 1-319): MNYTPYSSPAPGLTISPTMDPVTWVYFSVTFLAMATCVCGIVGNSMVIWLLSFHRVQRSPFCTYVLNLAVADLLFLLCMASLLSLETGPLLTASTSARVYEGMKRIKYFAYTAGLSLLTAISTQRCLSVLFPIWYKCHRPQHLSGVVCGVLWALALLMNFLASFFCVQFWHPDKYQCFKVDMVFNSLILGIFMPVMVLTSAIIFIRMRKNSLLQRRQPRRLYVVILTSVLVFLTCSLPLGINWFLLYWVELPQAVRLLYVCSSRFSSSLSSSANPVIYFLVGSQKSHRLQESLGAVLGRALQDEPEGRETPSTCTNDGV
The experiment in a line: Calcium mobilization FLIPR assay, agonist dose-response, CHO-DUKX cells expressing rat MrgD. In kind it is cell-based. Particulars: for EC50 / EC50 Rat MrgD: CHO-DUKX cells, FLIPR, Table 1: mean ± SD from 2–6 independent experiments; for FLIPR response in rat MrgD expressing cells: result in words. How it is done: as §2, §1

Assay [5] deals with MrgD expressing cell lines. Conditions: read-out: EC50 for MrgD expressing cell lines, cited from earlier work.
Assay [6] relates to beta-alanine-induced calcium mobilization in MrgD CHO-DUKX cells. In words: Evaluation of Gi and Gq coupling of MrgD by FLIPR response to beta-alanine. Conditions: 100 μM beta-alanine. Format: cell-based. How it is done: MrgD is known to couple through both Gi and Gq. To further explore the utility of the cell line for a potential secondary assay measuring cAMP, we investigated whether the FLIPR assay was capable of distinguishing the extent of Gi and Gq coupling of MrgD. MrgD CHO-DUKX cells were treated with either the Gi inhibitor pertussis toxin (PTX) overnight or the phospholipase C (PLC) inhibitor U-73122 for 30 or 60 minutes and then evaluated for their responses to beta-alanine.
Figure 2 Evaluation of Gq (Figure 2(a)) and Gi (Figure 2(b)) coupling of MrgD receptors assessed using FLIPR response. MrgD cells were pretreated with the PLC inhibitor (U-73122 at 2 μM for 30 or 60 minutes) or pertussis toxin (100 ng overnight) for blocking Gi coupling to MrgD. FLIPR responses were evaluated by the addition of 100 μM beta-alanine.

[7] abbreviates: CHO-DUKX cells, FLIPR, Table 1: mean ± SD from 2–6 independent experiments, read-out: EC50 Human MrgD.
The mark [8] stands for this setting: HA 966 racemate and enantiomers, species not stated at place, racemate value equals human MrgD value of Table 2, read-out: EC50 as MrgD agonist (Figure 5(a)).
The mark [9] stands for this setting: unit inferred, read-out: IC50 as MrgD antagonist (dose response analysis).
[10] abbreviates: CHO-DUKX cells, FLIPR, Table 1: mean ± SD from 2–6 independent experiments.

As to `CN(C)CCCN1c2ccccc2Sc2ccc(Cl)cc21` [chlorpromazine hydrochloride], the IC50 in assay [1] (read-out: IC50 as MrgD antagonist (Figure 5 legend)) was 2.7 µM. In addition, in assay [2], the “Calcium mobilization following addition of beta-alanine (addition 2) in LOPAC screen” value (“Calcium mobilization following addition” below) is given as “attenuation or complete absence of calcium mobilization”.

On to `NCC(=O)O` [Glycine], for which the EC50 in assay [3] (setting [7]) is above 100 µM. The “FLIPR response in human MrgD expressing cells” value in assay [3] is on record as “not”. In addition, in assay [4], the concentration giving a half-maximal response (EC50) was above 100 µM and the “FLIPR response in rat MrgD expressing cells” value was “not”.

Consider `NC1CCN(O)C1=O` (single isomer, unassigned; (+)) [(+) HA 966], for which, in assay [3] (setting [8]), the 50% effective concentration (EC50) was found to be 106 µM.

In the case of `NC1CCN(O)C1=O` (racemic) [(±) HA 966], the EC50 in assay [3] (setting [7]) was 11 µM; in assay [4], 13.2 µM.

With `NCCC(=O)O` [Beta-alanine], the EC50 in assay [3] (setting [7]) was 1 to 4 µM and 3.76 µM; in assay [4], 1 to 4 µM and 3.77 µM; in assay [5] (ref 9) it was 15 ± 1 µM; in assay [5] (ref 11), 8.6 µM.

Take `COc1ccc2c(c1)CC[C@@H]1[C@@H]2CC[C@]2(C)[C@@H](NCCCCCCN3C(=O)C=CC3=O)CC[C@@H]12` [U-73122]: the “Effect on FLIPR response to beta-alanine” value in assay [6] (U-73122 at 2 μM for 30 or 60 minutes) was “completely blocked”.

Turning to `CCCn1c(=O)c2[nH]c(-c3ccc(OCC(=O)NCCN)cc3)nc2n(CCC)c1=O` [Xanthine amine congener], the results for the 50% effective concentration (EC50) in assay [3] (setting [7]) and in assay [4] were above 100 µM and 48.3 µM, respectively.

Regarding “5, 7 dihydroxytryptamine creatinine sulfate”, the EC50 in assay [3] (setting [7]) was determined as 5.2 µM; in assay [4] it was 9.7 µM.

On to `CSc1ccc2c(c1)N(CCC1CCCCN1C)c1ccccc1S2` (centres unmarked) [thioridazine hydrochloride], for which the IC50 in assay [1] (setting [9]) worked out at 1.06 µM. Also, the “Calcium mobilization following addition” value in assay [2] is recorded as “attenuation or complete absence of calcium mobilization”.

`NCC1(CC(=O)O)CCCCC1` [Gabapentin]: in assay [3] (setting [10]), the “EC50 Human MrgD” value is “No effect”. The “FLIPR response in human MrgD expressing cells” value in assay [3] is “failed to induce a response”. Further, in assay [4], the “EC50 Rat MrgD” value is reported as “No effect” and the “FLIPR response in rat MrgD expressing cells” value was “failed to induce a response”.

For `CN[C@@H]1C[C@@H](c2ccc(Cl)c(Cl)c2)c2ccccc21` [indatraline hydrochloride], the “Calcium mobilization following addition” value in assay [2] is on record as “attenuation or complete absence of calcium mobilization”.

Turning to `NC1CCN(O)C1=O` (single isomer, unassigned; (-)) [(−) HA 966], the EC50 in assay [3] (setting [8]) was 5.5 µM.

Regarding `CCCN1CCc2cccc3c2[C@H]1Cc1ccc(O)c(O)c1-3.Cl` [R(−)-Propylnorapomorphine hydrochloride], the IC50 in assay [1] (setting [9]) amounted to 1.46 µM. Also, the “Calcium mobilization following addition” value in assay [2] was “attenuation or complete absence of calcium mobilization”.

Regarding pertussis toxin [PTX], the “Reduction in calcium mobilization” value in assay [6] (pertussis toxin 100 ng overnight) is around 50%.

As for `CC(C)C[C@H](CN)CC(=O)O` [Pregabalin], the “EC50 Human MrgD” value in assay [3] (setting [10]) is given as “No effect”. For the same compound, the “FLIPR response in human MrgD expressing cells” value in assay [3] was “failed to induce a response”. For the same compound, in assay [4], the “EC50 Rat MrgD” value is reported as “No effect” and the “FLIPR response in rat MrgD expressing cells” value is reported as “failed to induce a response”.

Regarding `NCCCC(=O)O` [GABA, gamma-aminobutyric acid], in assay [3] (setting [7]), the EC50 stood at 53 ± 26 µM. The “FLIPR response in human MrgD expressing cells” value in assay [3] is “weakly stimulated”. Further, in assay [4], the EC50 was 49.8 ± 1.5 µM and the “FLIPR response in rat MrgD expressing cells” value is “weakly stimulated”. The “Response to test compound (addition 1) in LOPAC screen” value in assay [2] (Figure 4(a)) was “evoked a response”.
